Data as given in patent publication US20080003590A1, “Termination of Binding Parameters” (priority 2004, published 2008).

Tests used:
[1] = biological target: human serum albumin (HSA) (Homo sapiens, UniProt P02768); experiment: biochemical
Experimental: 5. Immobilization of Human Serum Albumin (HSA) on Fluorescence-Active Supports (FI-HSA)
For the immobilization of HSA, 100 mg of HSA dissolved in 10 ml of phosphate buffer (20 mM, pH 7.4) are added to 1 g of a support prepared according to 2. and rotated overhead for at least four hours. To remove free protein, this is washed with phosphate buffer, 1M NaCl in phosphate buffer and finally with PBS. The quantification of the protein immobilization is effected by supernatant analysis. The suspension is adjusted to a desired protein concentration in PBS and stored.
For the determination of the albumin binding, 200 mg of the FI-HSA support prepared in 5. were made up to a total volume of 1 ml with PBS, and similarly 200 mg of an FI-Ref prepared according to 3. were made up to 1 ml with PBS.
For the determination of the concentration-dependent quantities, the following volumes were pipetted into the wells of a 384 well UV plate (Greiner UV-plate): […]
whereby the final concentration of carbamazepine in the wells is 70 μM. […] For the determination of the concentration-dependent quantity cpre-binding, excitation spectra of the wells reference 1 and substance 1 are recorded in the “top-read” mode between 250 and 480 nm with an emission wavelength of 530 nm, and calculated from cpre-binding=log F0v(λ)/Fv(λ), where F0v(λ) and Fv(λ) are the excitation spectra of the wells reference 1 and substance 1. […]

[2] = Determination of the membrane affinity of warfarin in the 96-well format (FI-EiPC support, internal filter effect); type: physicochemical; conditions: triple determination, 70 μM warfarin, FI-EiPC support in PBS
Experimental: 4. Reconstitution of Lipid Membranes on Fluorescence-Active Supports (FI-EiPC)
For the reconstitution of lipid membranes, firstly 1 g of a support prepared according to 2. is treated with a solution of 25 mg of sodium polystyrenesulfonate in 25 ml of water in the overhead rotator and then washed three times each with water and PBS.
60 ml of a vesicle solution of 5 mg/ml EiPC (lipid extract from egg yolk) in PBS (prepared by homogenization in the Avestin Co EmulsiFlex-C5 homogenizer) are added to this support and incubated overnight. To remove excess lipid, this is washed three times with PBS and the support is then stored in PBS. The determination of the lipid concentration is effected by drying of defined volumes of suspension, detachment of the lipid from the solid body using an organic solvent, and then HPLC analysis.
Well reference 1: 100 μl FI-Ref suspension+200 μl PBS
Well substance 1: 100 μl FI-Ref suspension+170 μl PBS+30 μl warfarin solution;
Well reference 1′: 100 μl FI-EiPC suspension+200 μl PBS
Well substance 1′: 100 μl FI-EiPC suspension+170 μl PBS+30 μl warfarin solution; whereby the final concentration of warfarin in the wells is 70 μM. […]

human serum albumin (HSA), sequence (P02768 25-609): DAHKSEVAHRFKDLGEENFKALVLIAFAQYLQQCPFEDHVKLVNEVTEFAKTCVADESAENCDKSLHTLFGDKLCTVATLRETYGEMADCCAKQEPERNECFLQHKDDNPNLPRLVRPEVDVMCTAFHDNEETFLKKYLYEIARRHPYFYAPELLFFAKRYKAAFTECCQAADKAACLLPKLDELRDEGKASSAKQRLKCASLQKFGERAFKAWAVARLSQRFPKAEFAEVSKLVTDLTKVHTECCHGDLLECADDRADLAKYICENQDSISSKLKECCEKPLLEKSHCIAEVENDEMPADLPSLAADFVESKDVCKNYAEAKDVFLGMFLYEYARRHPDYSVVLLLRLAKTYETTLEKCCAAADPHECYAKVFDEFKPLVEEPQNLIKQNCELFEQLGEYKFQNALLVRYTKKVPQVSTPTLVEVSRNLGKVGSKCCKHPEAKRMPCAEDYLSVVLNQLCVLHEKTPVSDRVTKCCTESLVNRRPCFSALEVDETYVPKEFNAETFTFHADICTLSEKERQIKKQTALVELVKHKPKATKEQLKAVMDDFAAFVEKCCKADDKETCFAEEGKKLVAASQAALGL

Row | Kd [1] [µM] | membrane affinity [2] | SMILES
1 | 170 | – | NC(=O)N1c2ccccc2C=Cc2ccccc21 [carbamazepine]
2 | – | 1.7±0.3 | CC(=O)CC(c1ccccc1)c1c(O)c2ccccc2oc1=O (centres unmarked) [warfarin]
